Test results: PubChem BioAssay (NCI)
Converted amounts (≈) assume the structure as drawn. “And” between values parts separate entries of the source, which are not always exact repeats. Identical values can stand only once.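 Method: 48-hour compound exposure of cells in 96-well plates, five concentrations, linear interpolation of endpoints. Abbreviation: GI50, concentration required for 50% inhibition of growth. Definition used: TGI = concentration required for complete inhibition of growth.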

Experiments:
Experiment in all cases: NCI tumour cell line growth inhibition, 48 h
ACHN renal = system: ACHN renal
HT29 colon = system: HT29 colon
MDA-MB-435 = system: MDA-MB-435
MDA-N = system: MDA-N
MOLT-4 leukemia = system: MOLT-4 leukemia
OVCAR-4 ovarian = system: OVCAR-4 ovarian
OVCAR-8 ovarian = system: OVCAR-8 ovarian
SF-268 CNS = system: SF-268 CNS
U251 CNS = system: U251 CNS
HOP-92 NSCLC = system: HOP-92 NSCLC

Compound	GI50 (ACHN renal)	TGI (ACHN renal)	GI50 (HT29 colon)	TGI (HT29 colon)	GI50 (MDA-MB-435)	TGI (MDA-MB-435)	GI50 (MDA-N)	TGI (MDA-N)	GI50 (MOLT-4 leukemia)	TGI (MOLT-4 leukemia)	GI50 (OVCAR-4 ovarian)	TGI (OVCAR-4 ovarian)	GI50 (OVCAR-8 ovarian)	TGI (OVCAR-8 ovarian)	GI50 (SF-268 CNS)	TGI (SF-268 CNS)	GI50 (U251 CNS)	TGI (U251 CNS)	TGI (HOP-92 NSCLC)	GI50 (HOP-92 NSCLC)
CC1(C)CC(=O)C2=C(C1)NC(SSC1=C(C#N)C(c3ccc(F)cc3)C3=C(CC(C)(C)CC3=O)N1)=C(C#N)C2c1ccc(F)cc1 (stereo not drawn)	28.7 µg/mL (≈ 43.8 µM)	53.7 µg/mL	25.1 µg/mL	47.2 µg/mL	26.2 µg/mL (≈ 40 µM)	46.9 µg/mL	27.2 µg/mL (≈ 41.5 µM)	48.4 µg/mL	39.1 µg/mL	118 µg/mL	27.7 µg/mL (≈ 42.3 µM)	52.7 µg/mL	28.8 µg/mL (≈ 44 µM)	49.9 µg/mL	29.3 µg/mL (≈ 44.8 µM)	58.4 µg/mL	15 µg/mL (≈ 22.9 µM)	15 µg/mL	–	–
O=C(O)C(CSC(c1ccccc1)(c1ccccc1)c1ccccc1)N=Cc1cccs1 (stereo not drawn)	–	> 100 µM	–	18.6 µM	–	1.21 µM	–	1.94 µM	–	> 75.7 µM	–	> 100 µM	–	42.3 µM	–	> 40.2 µM	–	> 62.4 µM	> 84 µM	–
O=C(CCN1CC2CCC(CC2)C1)c1cccs1	–	33.6 µM	–	61.6 µM	–	42.3 µM	–	34.7 µM	–	18.7 µM	–	> 74.6 µM	–	42.4 µM	–	44.3 µM	–	33.5 µM	12.6 µM	–
CCOC(=O)/C(=C\NCC(OCC)OCC)c1nc2ccccc2[nH]1	–	> 100 µM	–	71.1 µM	–	73.3 µM	–	85.2 µM	–	41.3 µM	–	> 100 µM	–	> 100 µM	–	> 100 µM	–	> 100 µM	> 100 µM	–
CCOC(=O)C1CCn2c(nc3c2c(=O)n(C)c(=O)n3C)S1 (stereo not drawn)	–	> 100 µM	–	> 100 µM	–	–	–	–	–	> 100 µM	–	> 100 µM	–	> 100 µM	–	> 100 µM	–	> 100 µM	–	–
O=CN1CCN(C(=O)c2cc(Cl)cc(Cl)c2)C1=S	–	31.7 µM	–	54.5 µM	–	28.1 µM	–	35.4 µM	–	42.7 µM	–	33.4 µM	–	33.6 µM	–	30.6 µM	–	36 µM	31.9 µM	–
CC1=C2C(=O)OCC23C=COC3(C)O1 (stereo not drawn)	–	> 100 µM	–	> 100 µM	–	53.3 µM	–	> 100 µM	–	> 100 µM	–	> 100 µM	–	> 100 µM	–	> 100 µM	–	> 100 µM	> 100 µM	–
O=[N+]([O-])c1ccc2c(c1)c(N=NC(=S)NC1CCCCC1)c(O)n2CN1CCOCC1	–	18 µM	–	17.9 µM	–	20 µM	–	20 µM	–	> 100 µM	–	17.9 µM	–	17.4 µM	–	19.2 µM	–	17.3 µM	12.9 µM	–
CS(=O)(=O)c1nc(-c2cc3c(c(S(C)(=O)=O)n2)CCCC3)cc2c1CCCC2	–	> 100 µM	–	> 100 µM	–	> 100 µM	–	> 100 µM	–	> 100 µM	–	> 100 µM	–	> 69.5 µM	–	> 47.3 µM	–	> 100 µM	–	–
C/C(=N\NC(=O)c1cccnc1)c1cccc(/C(C)=N/NC(=O)c2cccnc2)n1	–	12.2 µM	2.63 µM	> 100 µM	–	–	–	–	2.45 µM	12 µM	–	–	–	19.3 µM	–	30.6 µM	–	> 100 µM	59.1 µM	7.41 µM
C=C1C[C@@H](O)[C@@H](Br)C(C)(C)[C@]12CCC(C)(Cl)C(Br)C2 (stereo partly drawn)	–	> 87.5 µM	–	> 100 µM	–	> 71.2 µM	–	> 59.8 µM	–	> 100 µM	–	> 100 µM	–	> 100 µM	–	> 77.4 µM	–	> 55.9 µM	> 73.6 µM	–
Nc1ccccc1N/C(=C\C(=O)C(Cl)(Cl)Cl)c1ccccc1	–	75.4 µM	–	> 100 µM	–	> 100 µM	–	39 µM	–	> 100 µM	–	> 100 µM	–	> 100 µM	–	70.4 µM	–	32 µM	41.8 µM	–
COc1ccc(N=C2C(=O)C3=C(OC(C)(C)CC3)c3ccccc32)cc1	–	1.57 µM	–	1.57 µM	–	0.502 µM	–	1.26 µM	–	5.29 µM	–	1.51 µM	–	8.37 µM	–	10.7 µM	–	1.65 µM	22.2 µM	–
Clc1ccc(Nc2nc(Cl)c3[nH]cnc3n2)cc1Cl	–	> 100 µM	–	43.9 µM	–	80.3 µM	–	> 100 µM	–	61.3 µM	–	> 100 µM	–	> 100 µM	–	91.3 µM	–	> 100 µM	53.4 µM	–
[O-][N+](CCO)(CCO)c1ncnc2nc[nH]c12	–	> 100 µM	–	> 100 µM	–	> 100 µM	–	> 100 µM	–	> 100 µM	–	> 100 µM	–	> 100 µM	–	> 100 µM	–	> 100 µM	–	–
CC[C@@]1(O)C(=O)OCc2c1cc1n(c2=O)Cc2c-1nc1ccc(O)cc1c2CC[Si](C)(C)C	–	0.363 µM	–	–	–	0.495 µM and 0.887 µM	–	–	–	0.00221 µM	–	0.0538 µM	–	0.197 µM	–	–	–	–	0.0308 µM	–
O=S1(=O)OC(c2ccc(O)cc2)(c2ccc(O)cc2)c2ccccc21	–	> 100 µM	–	> 100 µM	–	> 100 µM	–	–	–	> 100 µM	–	> 100 µM	–	> 100 µM	–	> 100 µM	–	> 100 µM	> 100 µM	–
